This note sets out measurements from US20080187911A1, “Methods and compositions for analysis of mitochondrial-related gene expression” (priority 2003, published 2008).

Assay [1] deals with mitochondrial DNA encoded gene expression. Description: Microarray analysis of mitochondrial DNA encoded gene expression in response to 3-nitropropionic acid. As to conditions: 3 NPA treatments at 6, 12 and 26 hours; inhibition of Complex II (succinic dehydrogenase). It is filed as cell-based. The method, then: FIGS. 5A-5B. Analysis of mitochondrial DNA encoded gene expression. FIG. 5A—response to 3-nitropropionic acid, an inhibitor of Complex II—succinic dehydrogenase. […] FIG. 5B-analysis of mitochondrial DNA encoded gene expression in trypanosome infected heart tissue.
Analysis of mitochondrial DNA encoded gene expression in response to 3-nitropropionic acid (3NPA), an inhibitor of Complex II—succinic dehydrogenase was performed (FIG. 5A, Table 5). The 3 NPA treatments were at 6, 12 and 26 hours.

Assay [2] relates to mouse mitochondrial genes in AML-12 mouse liver cells. Description: Microarray analysis of the effects of rotenone on expression of mouse mitochondrial genes. The assay is classed as cell-based. As to conditions: AML-12 mouse liver cells in culture. The text has this:
FIG. 4. The effects of rotenone, an inhibitor of mitochondrial Complex I, on the expression of mouse mitochondrial genes in AML-12 mouse liver cells in culture.
The effects of rotenone, an inhibitor of mitochondrial Complex I, on the expression of mouse mitochondrial genes in AML-12 mouse liver cells in culture were examined (FIG. 4; Table 4). […] Spots A1-G11 represent mitochondrial related nuclear encoded genes; spots G12-H12 represent the 13 genes encoded by mitochondrial DNA. It should be noted that in subsequent microarray designs (constructions) the mitochondrial DNA encoded genes G12-H12 were removed from the filters and arrayed separately. Thus, the G12-H12 spots were replaced with nuclear encoded genes. […] E4 and E5 represent the […] and 16S mitochondrial ribosomal RNAs.

In the case of `O=C(O)CC[N+](=O)[O-]` [3-nitropropionic acid], the “synthesis of mitochondrial encoded mRNAs and ribosomal RNAs” value in assay [1] is “stimulates the synthesis of mitochondrial encoded mRNAs and the 23S and 16S ribosomal RNAs”. Regarding `C=C(C)[C@H]1Cc2c(ccc3c2O[C@@H]2COc4cc(OC)c(OC)cc4[C@@H]2C3=O)O1` [rotenone], the “mRNA pool levels of mitochondrial-related genes on the microarray” value in assay [2] (genes named: A11 ATP synthase lipid binding proteins, B8 ADP, ATP carrier protein, B9 cytochrome C oxidase chain VIIa, D12 chaperonin 10, E12 pyruvate carboxylase, H7 Complex I: Protein Dehydrogenase chain 3) is “up-regulated”. For the same compound, the “production of mRNAs of Complex I proteins (H7, H10)” value in assay [2] (inhibition of Complex I, suggested compensatory response) is given as “may stimulate the production of mRNAs of Complex I proteins (H7, H10)”.
